# Where “and” joins values, the source holds several entries; their conditions need not be identical. Equal entries are not always repeated.
# Legend:
# [1] = test system: Ps. aeruginosa; assay: Two-dimensional microtiter checkerboard, MIC and FIC of EDTA in 50 mM Tris and antibiotics; format: cell-based, Pseudomonas aeruginosa
# Procedure: (§1) Sabath, L. D, Antimicrob. Agents and Chem. 210-217. (1967) and Sparks et al., Vet. Res. Comm. 18, 241-249 (1994), incorporated herein by reference in their entireties. […] Then 0.05 ml of an 18-hour old culture of a test organism, containing 10^6 colony-forming units (CFU) ml, were added to each well. Controls for the culture and media were included in each plate. Plates were covered and incubated at 37° C. for 18-24 hours. […] To generate isobolograms, FICs of the two test solutions were plotted individually on the x-axis and y-axis to determine the effect of combining the two test solutions on bacterial growth. A line that curves away from the zero point and the coordinates indicated antagonism. […] Sabath, L. D, Antimicrob. Agents and Chem. 210-217. (1967), and incorporated herein by reference in their entireties. A numerical score or Fractional Inhibitory Concentration (FIC) index was determined.
# [2] = test system: Staph. aureus; assay: as above; format: cell-based, Staphylococcus aureus
# Procedure: as §1
# [3] = test system: Ent. faecalis; assay: as above; format: cell-based, Enterococcus faecalis
# Procedure: as §1
# [4] = test system: Aeromonas caviae; assay: MIC and FIC of EDTA in 50 mM Tris and neomycin, Aeromonas isolated from ulcerated fish; format: cell-based; settings: A. caviae
# Procedure: (§2) Sabath, L. D, Antimicrob. Agents and Chem. 210-217. (1967) and Sparks et al., Vet. Res. Comm. 18, 241-249 (1994), incorporated herein by reference in their entireties.
# (§3) Then 0.05 ml of an 18-hour old culture of a test organism, containing 10^6 colony-forming units (CFU) ml, were added to each well. Controls for the culture and media were included in each plate. Plates were covered and incubated at 37° C. for 18-24 hours.
# (§4) To generate isobolograms, FICs of the two test solutions were plotted individually on the x-axis and y-axis to determine the effect of combining the two test solutions on bacterial growth. A line that curves away from the zero point and the coordinates indicated antagonism. […] Sabath, L. D, Antimicrob. Agents and Chem. 210-217. (1967), and incorporated herein by reference in their entireties.
# (§5) A numerical score or Fractional Inhibitory Concentration (FIC) index was determined. The FIC index is equal to the sum of the values of FIC for the individual drugs: [formula]
# (§6) An FIC index greater than 1.0 indicated an antagonistic interaction, an FIC index of 1.0 indicated addition, and an FIC index of less than or equal to 0.5 indicated synergism between the two test agents.
# [5] = test system: Aeromonas sobria; assay: as above; format: cell-based; settings: A. sobria
# Procedure: as §2, §3, §4, §5, §6
# [6] = test system: Staphylococcus aureus; assay: Antibiotic resistance profile; format: cell-based; settings: Staphylococcus aureus test strain; further: key: R = resistant; I = intermediate; S = sensitive
# [7] = test system: Pseudomonas aeruginosa; assay: Antibiotic resistance profile; format: cell-based; settings: Pseudomonas aeruginosa test strain; further: key: R = resistant; I = intermediate; S = sensitive
# [8] = test system: Enterococcus faecalis; assay: Antibiotic resistance profile; format: cell-based; settings: Enterococcus faecalis test strain; further: key: R = resistant; I = intermediate; S = sensitive
# [9] = test system: surface ulcers of Koi; assay: Treatment of Koi suffering from surface ulcers (Example 2); format: in vivo, Koi (Cyprinus carpio); settings: antibiotics injected directly into the fish, before the bath treatment
# Procedure: All fish were housed in a communal “hospital tank” before treatment and moved to an isolation tank after each treatment. The temperature of the bath was adjusted to that of the hospital tank temperature, 24° C., and adequate aeration was supplied to the treatment tank.
# [10] = test system: Staphylococcus aureus; assay: Minimal Bactericidal Concentration (MBC), EDTA and neomycin in 50 mM Tris; format: cell-based
# [11] = test system: Pseudomonas aeruginosa; assay: as above; format: cell-based
# [12] = test system: Enterococcus faecalis; assay: as above; format: cell-based
# [13] = test system: Aeromonas hydrophila; assay: MIC and FIC of EDTA in 50 mM Tris and neomycin, Aeromonas isolated from ulcerated fish; format: cell-based; settings: A. hydrophila
# Procedure: as §2, §3, §4, §5, §6
Molecule,Antibiotic resistance profile [6],Antibiotic resistance profile [7],Antibiotic resistance profile [8],"MIC, antibiotic individually administered ([1]; Ps. aeruginosa, alone)","MIC, antibiotic individually administered ([2]; Staph. aureus, alone)","MIC, antibiotic individually administered ([3]; Ent. faecalis, alone)",Healing of visible ulcers [9],also measured
"O=C(O)CN(CCN(CC(=O)O)CC(=O)O)CC(=O)O [EDTA, ethylenediaminetetracetic acid]",,,,,,,,"MIC, individually administered EDTA ([1]; Ps. aeruginosa, EDTA in 50 mM Tris, alone): 1250 µM; MIC ([1]; Pseudomonas aeruginosa, read-out: MIC, individually administered EDTA): 1250 µM; MIC, individually administered EDTA ([2]; Staph. aureus, EDTA in 50 mM Tris, alone): 1000 µM; MIC ([2]; Staphylococcus aureus, read-out: MIC, individually administered EDTA): 1000 µM; MIC, individually administered EDTA ([3]; Ent. faecalis, EDTA in 50 mM Tris, alone): 15630 µM; MIC ([3]; Enterococcus faecalis, read-out: MIC, individually administered EDTA): 15600 µM; MIC, EDTA in 50 mM Tris alone [4]: <0.49; MIC, EDTA in 50 mM Tris alone [5]: 15.6"
gentamicin [Gm],S,I,R,,,,,
"NCC[C@H](O)C(=O)N[C@@H]1C[C@H](N)[C@@H](O[C@H]2O[C@H](CN)[C@@H](O)[C@H](O)[C@H]2O)[C@H](O)[C@H]1O[C@H]1O[C@H](CO)[C@@H](O)[C@H](N)[C@H]1O [Amikacin, amikacin, reference compound]",,,,1 µg/mL,120 µg/mL,2000 µg/mL,failed to heal visible ulcers,
C[C@H]1[C@H](NC(=O)/C(=N\OC(C)(C)C(=O)O)c2csc(N)n2)C(=O)N1S(=O)(=O)O [Azactam],,,,,,,failed to heal visible ulcers,
neomycin [reference compound],R,R,R,1000 µg/mL,3130 µg/mL,3130 µg/mL,,"Decrease of MBC value when combined compared to individually administered ([10]; Staph. aureus, EDTA and neomycin combined): about 50% and 50%; MBC, neomycin co-administered ([10]; Staphylococcus aureus, co-administered with EDTA in 50 mM Tris): 1560 µg/mL; MBC, neomycin individually administered ([10]; Staphylococcus aureus, in 50 mM Tris): 3130 µg/mL; Decrease of MBC value when combined compared to individually administered ([11]; Ps. aeruginosa, EDTA and neomycin combined): 99.2%; MBC, neomycin co-administered ([11]; Pseudomonas aeruginosa, co-administered with EDTA in 50 mM Tris): 40 µg/mL; MBC, neomycin individually administered ([11]; Pseudomonas aeruginosa, in 50 mM Tris): 5000 µg/mL; Decrease of MBC value when combined compared to individually administered ([12]; Ent. faecalis, EDTA and neomycin combined): 75%; MBC, neomycin co-administered ([12]; Enterococcus faecalis, co-administered with EDTA in 50 mM Tris): 6250 µg/mL; MBC, neomycin individually administered ([12]; Enterococcus faecalis, in 50 mM Tris): 25000 µg/mL; MIC, neomycin alone [4]: 12.5 µg/mL; MIC, neomycin alone [13]: 200 µg/mL; MIC, neomycin alone [5]: 12.5 µg/mL"
CCN1CCN(c2cc3c(cc2F)c(=O)c(C(=O)O)cn3C2CC2)CC1 [Baytril],,,,,,,failed to heal visible ulcers,
"CN[C@H](CC(C)C)C(=O)N[C@H]1C(=O)N[C@@H](CC(N)=O)C(=O)N[C@H]2C(=O)N[C@H]3C(=O)N[C@H](C(=O)N[C@H](C(=O)O)c4cc(O)cc(O)c4-c4cc3ccc4O)[C@H](O)c3ccc(c(Cl)c3)Oc3cc2cc(c3O[C@@H]2O[C@H](CO)[C@@H](O)[C@H](O)[C@H]2O[C@H]2C[C@](C)(N)[C@H](O)[C@H](C)O2)Oc2ccc(cc2Cl)[C@H]1O [Va, vancomycin]",S,R,R,,,,,
"CC1(C)S[C@@H]2[C@H](NC(=O)[C@H](N)c3ccccc3)C(=O)N2[C@H]1C(=O)O [Ampicillin, ampicillin, reference compound]",,,,490 µg/mL,240 µg/mL,1 µg/mL,,
"O=C(N[C@H](CO)[C@H](O)c1ccc([N+](=O)[O-])cc1)C(Cl)Cl [Chloramphenicol, chloramphenicol, reference compound]",,,,,390 µg/mL,400 µg/mL,,
"CN(C)[C@@H]1C(O)=C(C(N)=O)C(=O)[C@@]2(O)C(O)=C3C(=O)c4c(O)cccc4[C@@](C)(O)[C@H]3[C@H](O)[C@@H]12 [Oxytetracycline, oxytetracycline, reference compound]",,,,3 µg/mL,0.1 µg/mL,50 µg/mL,,

# Source: US6518252B2, “Method of treating aquatic animals with an antimicrobial agent and chelating agent” (priority 2000, dated 2003)
